The values that follow come from patent US20160002204A1 (Board of Regents, The University of Texas System, priority 2014, published 2016).

Experiment [1] concerns the target T1, GLS1 (purified recombinant human GAC) (Homo sapiens, UniProt O94925).
T1 sequence (O94925 55-598 isoform O94925-3 limits assumed): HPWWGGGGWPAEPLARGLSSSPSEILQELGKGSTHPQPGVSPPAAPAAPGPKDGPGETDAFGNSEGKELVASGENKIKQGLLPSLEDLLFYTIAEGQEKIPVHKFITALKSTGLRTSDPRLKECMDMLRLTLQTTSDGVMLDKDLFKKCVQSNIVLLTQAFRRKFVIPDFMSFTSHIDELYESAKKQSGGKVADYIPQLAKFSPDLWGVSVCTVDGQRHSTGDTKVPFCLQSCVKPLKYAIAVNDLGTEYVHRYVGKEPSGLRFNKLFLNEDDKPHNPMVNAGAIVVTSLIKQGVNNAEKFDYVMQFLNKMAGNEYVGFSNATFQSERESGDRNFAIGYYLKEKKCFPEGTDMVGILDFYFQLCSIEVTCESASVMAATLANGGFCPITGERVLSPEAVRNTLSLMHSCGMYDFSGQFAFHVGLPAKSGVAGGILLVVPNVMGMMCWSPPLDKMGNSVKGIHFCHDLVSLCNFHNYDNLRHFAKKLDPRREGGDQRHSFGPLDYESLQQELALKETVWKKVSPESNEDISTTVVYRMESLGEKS
Put plainly: GLS1 enzymatic activity assay (dual-coupled, Amplex UltraRed/resorufin). The class given is biochemical. In outline:
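GAC activity measured by coupling glutamate to glutamate oxidase and HRP, generating resorufin from Amplex UltraRed. Enzyme (2 nM) preincubated with 50 mM potassium phosphate 10 min at room temperature, then inhibitor 10 min; 1 mM glutamine substrate, 1% DMSO. Fluorescence 530/590 nm, kinetic or 20-min endpoint; IC50 from four-parameter logistic fit.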

The next experiment has as its system A549 cells. Put plainly: A549 proliferation (viability) assay, Cell Titer Fluor, 72 hours. The class given is cell-based. As to conditions: Homo sapiens. The essentials: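 Seed A549 at 1000 cells/well and culture 24 h. Add compound (final DMSO 0.5%) and incubate 72 h at 37 °C. Add Cell Titer Fluor, mix 15 min, incubate 30 min, read fluorescence and fit EC50 by four-parameter logistic.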

By IC50 is commonly meant the concentration at which inhibition is half-maximal. For orientation: EC50 means the midpoint of the concentration-response curve. As to `O=C(Cc1ccc(F)cc1F)Nc1ccn(CCC(F)Cn2cc(C(=O)NCc3cccc(OC(F)(F)F)c3)nn2)c(=O)c1F` (stereo not drawn) [Example 334, 1-(4-{4-[2-(2,4-difluorophenyl)acetamido]-3-fluoro-2-oxo-1,2-dihydropyridin-1-yl}-2-fluorobutyl)-N-{[3-(trifluoromethoxy)phenyl]methyl}-1H-1,2,3-triazole-4-carboxamide], the IC50 in experiment [1] is < 0.1 µM. Further, the EC50 in the experiment on A549 cells is < 0.1 µM.

Consider `O=C(Cc1c(F)cccc1F)Nc1ccn(CCC(F)Cn2cc(C(=O)NCc3cccc(OC(F)(F)F)c3)nn2)c(=O)c1F` (stereo not drawn) [Example 335, l-(4-{4-[2-(2,6-difluorophenyl)acetamido]-3-fluoro-2-oxo-1,2-dihydropyridin-1-yl}-2-fluorobutyl)-N-{[3-(trifluoromethoxy)phenyl]methyl}-1H-1,2,3-triazole-4-carboxamide], for which the IC50 in experiment [1] was < 0.1 µM. Besides, in the experiment on A549 cells, the EC50 lay in the range of 0.1 to 0.5 µM.

With `O=C(CC1CCC1)Nc1ccn(CCC(F)Cn2cc(C(=O)NCc3cccc(C(F)(F)F)n3)nn2)c(=O)c1F` (stereo not drawn) [Example 336, 1-{4-[4-(2-cyclobutylacetamido)-3-fluoro-2-oxo-1,2-dihydropyridin-1-yl]-2-fluorobutyl}-N-{[6-(trifluoromethyl)pyridin-2-yl]methyl}-1H-1,2,3-triazole-4-carboxamide], the IC50 in experiment [1] is < 0.1 µM. Further, the 50% effective concentration (EC50) with A549 cells is < 0.1 µM.

Take `CC(C(=O)Nc1ccn(CCC(F)Cn2cc(C(=O)NCc3cccc(OC(F)(F)F)c3)nn2)c(=O)c1F)N1CCCCC1` (stereo not drawn) [Example 337, 1-(2-fluoro-4-(3-fluoro-2-oxo-4-(2-(piperidin-1-yl)propanamido)pyridin-1(2H)-yl)butyl)-N-(3-(trifluoromethoxy)benzyl)-1H-1,2,3-triazole-4-carboxamide]: the IC50 in experiment [1] is < 0.1 µM. For the same compound, in the experiment on A549 cells, the concentration for a half-maximal effect (EC50) is < 0.1 µM.

Turning to `O=C(CN1CCCCC1)Nc1ccn(CCC(F)Cn2cc(C(=O)NCc3cccc(C(F)(F)F)n3)nn2)c(=O)c1F` (stereo not drawn) [Example 338, 1-(2-fluoro-4-{3-fluoro-2-oxo-4-[2-(piperidin-1-yl)acetamido]-1,2-dihydropyridin-1-yl}butyl)-N-{[6-(trifluoromethyl)pyridin-2-yl]methyl}-1H-1,2,3-triazole-4-carboxamide], the IC50 in experiment [1] fell in the range of 0.1 to 0.5 µM. The same compound showed an EC50 in the experiment with A549 cells of 0.1 to 0.5 µM.

`O=C(CC1CCC1)Nc1ccn(CCC(F)Cn2cc(C(=O)NCc3cccc(OC(F)(F)F)c3)nn2)c(=O)c1F` (stereo not drawn) [Example 339, 1-{4-[4-(2-cyclobutylacetamido)-3-fluoro-2-oxo-1,2-dihydropyridin-1-yl]-2-fluorobutyl}-N-{[3-(trifluoromethoxy)phenyl]methyl}-1H-1,2,3-triazole-4-carboxamide]: the IC50 in experiment [1] was < 0.1 µM. Further, the EC50 in the experiment with A549 cells was < 0.1 µM.

`CC(C)(C)CC(=O)Nc1ccn(CCC(F)Cn2cc(C(=O)NCc3cccc(OC(F)(F)F)c3)nn2)c(=O)c1F` (stereo not drawn) [Example 340, 1-{4-[4-(3,3-dimethylbutanamido)-3-fluoro-2-oxo-1,2-dihydropyridin-1-yl]-2-fluorobutyl}-N-{[3-(trifluoromethoxy)phenyl]methyl}-1H-1,2,3-triazole-4-carboxamide]: in experiment [1], the IC50 was < 0.1 µM. In the experiment on A549 cells, the EC50 was < 0.1 µM.

Consider `O=C(NCc1cccc(OC(F)(F)F)c1)c1cn(CC(F)CCn2ccc(NC(=O)C3CCCCC3)c(F)c2=O)nn1` (stereo not drawn) [Example 341, 1-[4-(4-cyclohexaneamido-3-fluoro-2-oxo-1,2-dihydropyridin-1-yl)-2-fluorobutyl]-N-{[3-(trifluoromethoxy)phenyl]methyl}-1H-1,2,3-triazole-4-carboxamide], for which the IC50 in experiment [1] is < 0.1 µM. For the same compound, in the experiment with A549 cells, the concentration for a half-maximal effect (EC50) was < 0.1 µM.

In the case of `O=C(NCc1cccc(OC(F)(F)F)c1)c1cn(CC(F)CCn2ccc(NC(=O)C3CCCC3)c(F)c2=O)nn1` (stereo not drawn) [Example 342, 1-[4-(4-cyclopentaneamido-3-fluoro-2-oxo-1,2-dihydropyridin-1-yl)-2-fluorobutyl]-N-{[3-(trifluoromethoxy)phenyl]methyl}-1H-1,2,3-triazole-4-carboxamide], the half-maximal inhibitory concentration (IC50) in experiment [1] is < 0.1 µM. Further, the EC50 with A549 cells was < 0.1 µM.

On to `C[C@H](C(=O)Nc1ccn(CCC(F)Cn2cc(C(=O)NCc3cc(C(F)(F)F)ccn3)nn2)c(=O)c1F)c1ccccc1` (stereo partly drawn) [Example 343, 1-(2-fluoro-4-{3-fluoro-2-oxo-4-[(2S) 2-phenylpropanamido]-1,2-dihydropyridin-1-yl}butyl)-N-{[4-(trifluoromethyl)pyridin-2-yl]methyl}-1H-1,2,3-triazole-4-carboxamide], for which the IC50 in experiment [1] was < 0.1 µM. Further, the EC50 in the experiment with A549 cells was < 0.1 µM.

`O=C(CN1CCCCC1)Nc1ccn(CCC(F)Cn2cc(C(=O)NCc3cc(C(F)(F)F)ccn3)nn2)c(=O)c1F` (stereo not drawn) [Example 344, 1-(2-fluoro-4-{3-fluoro-2-oxo-4-[2-(piperidin-1-yl)acetamido]-1,2-dihydropyridin-1-yl}butyl)-N-{[4-(trifluoromethyl)pyridin-2-yl]methyl}-1H-1,2,3-triazole-4-carboxamide]: the half-maximal inhibitory concentration (IC50) in experiment [1] lay in the range of 0.1 to 0.5 µM. In addition, the EC50 in the experiment with A549 cells was < 0.1 µM.

In the case of `CC(C(=O)Nc1ccn(CCC(F)Cn2cc(C(=O)NCc3cc(C(F)(F)F)ccn3)nn2)c(=O)c1F)N1CCCCC1` (stereo not drawn) [Example 345, 1-(2-fluoro-4-{3-fluoro-2-oxo-4-[2-(piperidin-1-yl)propanamido]-1,2-dihydropyridin-1-yl}butyl)-N-{[4-(trifluoromethyl)pyridin-2-yl]methyl}-1H-1,2,3-triazole-4-carboxamide], the IC50 in experiment [1] fell in the range of 0.1 to 0.5 µM. In addition, the EC50 with A549 cells is < 0.1 µM.

Take `O=C(Nc1ccn(CCC(F)Cn2cc(C(=O)NCc3cccc(OC(F)(F)F)c3)nn2)c(=O)c1F)OC1CCCCC1` (stereo not drawn) [Example 346, cyclohexyl N-(3-fluoro-1-{3-fluoro-4-[4-({[3-(trifluoro-methoxy)phenyl]methyl}carbamoyl)-1H-1,2,3-triazol-1-yl]butyl}-2-oxo-1,2-dihydropyridin-4-yl)carbamate]: the concentration for half-maximal inhibition (IC50) in experiment [1] is < 0.1 µM. For the same compound, in the experiment on A549 cells, the concentration giving a half-maximal response (EC50) was < 0.1 µM.

Consider `CCOC(=O)C(=O)Nc1ccn(CCC(F)Cn2cc(C(=O)NCc3cccc(OC(F)(F)F)c3)nn2)c(=O)c1F` (stereo not drawn) [Example 347, ethyl [(3-fluoro-1-{3-fluoro-4-[4-({[3-(trifluoromethoxy)phenyl]methyl}carbamoyl)-1H-1,2,3-triazol-1-yl]butyl}-2-oxo-1,2-dihydropyridin-4-yl)carbamoyl]formate], for which, in experiment [1], the IC50 lay within 0.1 to 0.5 µM. In addition, the EC50 in the experiment with A549 cells was > 5 µM.

Consider `O=C(Cc1ccccc1)Nc1ccn(CCC(F)Cn2cc(C(=O)NCc3cncc(C(F)(F)F)c3)nn2)c(=O)c1F` (stereo not drawn) [Example 348, 1-{2-fluoro-4-[3-fluoro-2-oxo-4-(2-phenylacetamido)-1,2-dihydropyridin-1-yl]butyl}-N-{[5-(trifluoromethyl)pyridin-3-yl]methyl}-1H-1,2,3-triazole-4-carboxamide], for which the IC50 in experiment [1] is < 0.1 µM. Also, the EC50 with A549 cells is < 0.1 µM.

In the case of `C[C@H](C(=O)Nc1ccn(CCC(F)Cn2cc(C(=O)NCc3cncc(C(F)(F)F)c3)nn2)c(=O)c1F)c1ccccc1` (stereo partly drawn) [Example 349], the IC50 in experiment [1] is < 0.1 µM. Also, in the experiment with A549 cells, the EC50 was < 0.1 µM.

In the case of `O=C(CC1CCC1)Nc1ccn(CCC(F)Cn2cc(C(=O)NCc3cncc(C(F)(F)F)c3)nn2)c(=O)c1F` (stereo not drawn) [Example 350, 1-{4-[4-(2-cyclobutylacetamido)-3-fluoro-2-oxo-1,2-dihydropyridin-1-yl]-2-fluorobutyl}-N-{[5-(trifluoromethyl)pyridin-3-yl]methyl}-1H-1,2,3-triazole-4-carboxamide], in experiment [1], the IC50 was < 0.1 µM. Further, the EC50 in the experiment with A549 cells was < 0.1 µM.

Turning to `O=C(CN1CCCCC1)Nc1ccn(CCC(F)Cn2cc(C(=O)NCc3cncc(C(F)(F)F)c3)nn2)c(=O)c1F` (stereo not drawn) [Example 351, 1-(2-fluoro-4-{3-fluoro-2-oxo-4-[2-(piperidin-1-yl)acetamido]-1,2-dihydropyridin-1-yl}butyl)-N-{[5-(trifluoromethyl)pyridin-3-yl]methyl}-1H-1,2,3-triazole-4-carboxamide], the IC50 in experiment [1] is < 0.1 µM. Further, the EC50 in the experiment on A549 cells was < 0.1 µM.

Turning to `CC(C(=O)Nc1ccn(CCC(F)Cn2cc(C(=O)NCc3cncc(C(F)(F)F)c3)nn2)c(=O)c1F)N1CCCCC1` (stereo not drawn) [Example 352, 1-(2-fluoro-4-{3-fluoro-2-oxo-4-[2-(piperidin-1-yl)propanamido]-1,2-dihydropyridin-1-yl}butyl)-N-{[5-(trifluoromethyl)pyridin-3-yl]methyl}-1H-1,2,3-triazole-4-carboxamide], the IC50 in experiment [1] is < 0.1 µM. Besides, the EC50 with A549 cells was < 0.1 µM.

`O=C(Nc1ccn(CCC(F)Cn2cc(C(=O)NCc3cccc(OC(F)(F)F)c3)nn2)c(=O)c1F)c1ccccc1` (stereo not drawn) [Example 353, 1-[4-(4-benzamido-3-fluoro-2-oxo-1,2-dihydropyridin-1-yl)-2-fluorobutyl]-N-{[3-(trifluoromethoxy)phenyl]methyl}-1H-1,2,3-triazole-4-carboxamide]: in experiment [1], the IC50 was < 0.1 µM. Also, in the experiment on A549 cells, the EC50 is 0.1 to 0.5 µM.

On to `CC(C)OC(=O)Nc1ccn(CCC(F)Cn2cc(C(=O)NCc3cccc(OC(F)(F)F)c3)nn2)c(=O)c1F` (stereo not drawn) [Example 354], for which the IC50 in experiment [1] was < 0.1 µM. The EC50 with A549 cells is < 0.1 µM.
